{
  "source": "patent EP1266655A1",
  "about": "“ENTERIC GRANULAR PREPARATIONS OF HARDLY WATER SOLUBLE DRUGS CHARACTERIZED BY CONTAINING WATER-REPELLENT COMPONENT” (SHIONOGI & CO., LTD., priority 2000, dated 2001)",
  "experiment": "Solubility of Compound A in several test solutions",
  "type": "physicochemical",
  "description": "Compound A was used as an insoluble active ingredient in the following references and examples.",
  "data": [
    {"smiles": "CC1(C)[C@H]2C[C@H](C/C=C\\CCCC(=O)O)[C@@H](NC(=O)c3csc4ccc(O)cc34)[C@@H]1C2", "note": "[Compound A, (Z)-7-[(1R,2R,3S,5S)-2-(5-hydroxybenzo[b]thiophen-3-ylcarbonylamino)-10-norpinan-3-yl]-5-heptenoic acid]", "values": [
      {"measurement": "solubility at 3 h", "setting": "Water, 3 hours, final pH 5.81", "value": 5.56, "unit": "µg/mL"},
      {"measurement": "solubility at 6 h", "setting": "Water, 6 hours, final pH 5.81", "value": 5.93, "unit": "µg/mL"},
      {"measurement": "solubility at 3 h", "setting": "jp-2 solution, JP-2 Sol., 3 hours, final pH 6.84", "value": 81.1, "unit": "µg/mL"},
      {"measurement": "solubility at 6 h", "setting": "jp-2 solution, JP-2 Sol., 6 hours, final pH 6.84", "value": 81.7, "unit": "µg/mL"},
      {"measurement": "solubility at 3 h", "setting": "ph 6.0 test solution, pH6.0, 3 hours, final pH 6.08", "value": 15.2, "unit": "µg/mL"},
      {"measurement": "solubility at 6 h", "setting": "ph 6.0 test solution, pH6.0, 6 hours, final pH 6.08", "value": 15.6, "unit": "µg/mL"},
      {"measurement": "solubility at 3 h", "setting": "ph 7.8 test solution, pH7.8, 3 hours, final pH 7.6", "value": 488, "unit": "µg/mL"},
      {"measurement": "solubility at 6 h", "setting": "ph 7.8 test solution, pH7.8, 6 hours, final pH 7.6", "value": 489, "unit": "µg/mL"},
      {"measurement": "solubility at 3 h", "setting": "ph 8.0 test solution, pH8.0, 3 hours, final pH 7.76", "value": 653, "unit": "µg/mL"},
      {"measurement": "solubility at 6 h", "setting": "ph 8.0 test solution, pH8.0, 6 hours, final pH 7.76", "value": 676, "unit": "µg/mL"},
      {"measurement": "solubility at 3 h", "setting": "ph 8.5 test solution, pH8.5, 3 hours, final pH 8.29", "value": 6200, "unit": "µg/mL"},
      {"measurement": "solubility at 6 h", "setting": "ph 8.5 test solution, pH8.5, 6 hours, final pH 8.29", "value": 6220, "unit": "µg/mL"}
    ]}
  ]
}
